# According to patent US12168803B2, “Compositions and methods for screening and diagnosis of prostate cancer” (DANA-FARBER CANCER INSTITUTE, INC., priority 2015, dated 2024):
# Tests used:
# LAPC4 cells [1] = assay: Cell growth / viability (Trypan Blue exclusion) of LAPC4 cells; type: cell-based, human
# From the text: (§1) To interrogate the differential sensitivity to docetaxel of prostate cancer cells, two prostate cancer cell lines, LNCaP and LAPC4, were compared.
# (§2) LNCaP-Abl cell line was provided by Zoran Culig (Innsbruck Medical University). LNCaP-C42 cell line was obtained from ViroMed Laboratories (Minneapolis). LNCaP-104R2 cell line was provided by Shutsung Liao (University of Chicago), and LAPC-4 cell line was provided by Charles Sawyers (Memorial Sloan Kettering Cancer Center). These cells were maintained with 10% fetal bovine serum (FBS) (LNCaP, LNCaP-C42, LMCaP-AI, VCAP, 22RV1, LAPC4, PC3, and DU145) or 10% charcoal-stripped serum (CSS) (LNCaP-Abl, and LNCaP-104R2) at 37 c in 5% CO2.
# LNCaP cells = assay: Cell growth / viability (Trypan Blue exclusion) of LNCaP cells; type: cell-based, human
# From the text: as §1, §2
# [2] = tested on: metastatic castration-resistant prostate cancer (mCRPC); settings: first-line; cited from earlier work
# [3] = tested on: metastatic hormone sensitive prostate cancer (mHSPC); settings: docetaxel given at the time of starting ADT for mHSPC; cited from earlier work
# [4] = tested on: docetaxel-resistant prostate cancer; settings: docetaxel-resistant patients; cited from earlier work
# LAPC4 cells [5] = settings: LAPC4, upon docetaxel treatment
# From the text: as §1
compound,measurement,setting,value
CNC(=O)c1ccc(N2C(=S)N(c3ccc(C#N)c(C(F)(F)F)c3)C(=O)C2(C)C)cc1F [enzalutamide],effect on viability of cells treated with docetaxel in DHT supplemented media,LAPC4 cells [1]; LAPC4,substantially reduced
same,effect on docetaxel sensitivity in the presence of DHT,"LAPC4 cells [1]; LAPC4, 10 nM docetaxel, DHT",resensitized the cells to docetaxel
CC(=O)O[C@@]12CO[C@@H]1C[C@H](O)[C@@]1(C)C(=O)[C@H](O)C3=C(C)[C@@H](OC(=O)[C@H](O)[C@@H](NC(=O)OC(C)(C)C)c4ccccc4)C[C@@](O)([C@@H](OC(=O)c4ccccc4)[C@H]21)C3(C)C [docetaxel],IC20,"LAPC4 cells [1]; Homo sapiens, LAPC4 cells, growth, read-out: IC20 concentration",5 nM
same,sensitivity of cells to docetaxel,"LAPC4 cells [1]; LAPC4, 10 nM docetaxel, absence of DHT",sensitive
same,IC20,"LNCaP cells; Homo sapiens, LNCaP cells, growth, read-out: IC20 concentration",0.5 nM
same,sensitivity of cells to docetaxel,"LNCaP cells; LNCaP, 10 nM docetaxel, absence of DHT",sensitive
same,prolongation of median overall survival (OS) over mitoxantrone,[2],~2 month
same,OS,[3],57 months
same,improvement of OS,[3],13 months
O=C1c2c(O)ccc(O)c2C(=O)c2c(NCCNCCO)ccc(NCCNCCO)c21 [mitoxantrone],median OS,[4],12.7 months
CO[C@H]1C(=O)[C@]2(C)[C@@H](OC)C[C@H]3OC[C@@]3(OC(C)=O)[C@H]2[C@H](OC(=O)c2ccccc2)[C@]2(O)C[C@H](OC(=O)[C@H](O)[C@@H](NC(=O)OC(C)(C)C)c3ccccc3)C(C)=C1C2(C)C [cabazitaxel],improvement of median OS over mitoxantrone,[4],2.4 months
same,median OS,[4],15.1 months
"C[C@]12CCC(=O)C[C@@H]1CC[C@@H]1[C@@H]2CC[C@]2(C)[C@@H](O)CC[C@@H]12 [DHT, dihydro-testosterone]",impact of DHT treatment on docetaxel sensitivity,LAPC4 cells [1]; LAPC4,dose-dependent
same,effect of DHT on viability in docetaxel,"LAPC4 cells [1]; LAPC4, 0.01 nM to 0.1 mM docetaxel, Trypan Blue exclusion",markedly increased
same,effect of 10 nM DHT on cell growth in the presence of docetaxel,"LAPC4 cells [1]; LAPC4, 10 nM docetaxel",restoration of cell growth
same,effect of DHT on viability against docetaxel,"LNCaP cells; LNCaP, 0.01 nM to 0.1 mM docetaxel, Trypan Blue exclusion",not significantly affected
same,effect of DHT on PARP cleavage,LAPC4 cells [5],specifically reduced
